This passage reports Activity and EC50 results from ChEMBL document CHEMBL5038662, “Isolation, Synthesis, and Structure-Activity Relationship Study on Daphnane and Tigliane Diterpenes as HIV Latency-Reversing Agents” (J Med Chem, 2022).

For one series, the system named is TZM. The experiment in a line: Cytotoxicity against human TZM-bl cells measured upto 0.1 uM. The format is toxicity, cell-based.
For series [1], the system named is Human immunodeficiency virus 1. The experiment in a line: Antiviral activity against HIV1 in human TZM-bl cells transfected with firefly luciferase and beta-galactosidase reporter genes assessed as activation of LTR-mediated transcriptional activity incubated for 24 hrs by luciferase reporter gene assay. The format is functional, organism-based. Particulars: Human immunodeficiency virus 1, TZM-bl. In general terms: In a reporter assay the amount or activity of a reporter protein is the signal.

Usually EC50 stands for the concentration needed to bring the measured effect to its halfway point. Turning to `CCCCC/C=C\CCC(=O)O[C@@]12[C@H](OC(=O)c3ccccc3)[C@@H](C)[C@@]3(O)[C@@H](C=C(CO)C[C@]4(O)C(=O)C(C)=C[C@@H]34)[C@@H]1C2(C)C`, the Activity entry with TZM was “Non-Toxic”. Besides, the EC50 in series [1] was 4.2 nM.

As to `CC/C=C\C/C=C\CCC(=O)O[C@@]12[C@H](OC(=O)c3ccccc3)[C@@H](C)[C@@]3(O)[C@@H](C=C(CO)C[C@]4(O)C(=O)C(C)=C[C@@H]34)[C@@H]1C2(C)C`, in series [1], the EC50 was 3.2 nM.

Turning to `CCCCCCCC(=O)O[C@@]12[C@H](OC(=O)c3ccccc3)[C@@H](C)[C@]3(O)[C@@H]4C=C(C)C(=O)[C@@]4(O)[C@H](O)C(CO)=C[C@H]3[C@@H]1C2(C)C`, the EC50 in series [1] was determined as 12 nM.

With `CCCCC/C=C\CCC(=O)O[C@@H]1[C@@H](C)[C@@]2(O)[C@@H](C=C(CO)C[C@]3(O)C(=O)C(C)=C[C@@H]23)[C@@H]2C(C)(C)[C@]12OC(=O)c1ccccc1`, the Activity result in the series on TZM is reported as “Non-Toxic”. In series [1], the EC50 is 18 nM.

For the compound `CCC(=O)O[C@@]12[C@H](OC(=O)c3ccccc3)[C@@H](C)[C@@]3(O)[C@@H](C=C(CO)C[C@]4(O)C(=O)C(C)=C[C@@H]34)[C@@H]1C2(C)C`, the Activity entry in the series with TZM is on record as “Non-Toxic”. Besides, the EC50 in series [1] is 10 nM.

For the compound `CCCCC/C=C/CCC(=O)O[C@@]12[C@H](OC(=O)c3ccccc3)[C@@H](C)[C@@]3(O)[C@@H](C=C(CO)C[C@]4(O)C(=O)C(C)=C[C@@H]34)[C@@H]1C2(C)C`, in the series on TZM, the Activity entry is on record as “Non-Toxic”. Further, the EC50 in series [1] was determined as 5.8 nM.

As for `CCCCCCC(=O)O[C@@]12[C@H](OC(=O)c3ccccc3)[C@@H](C)[C@@]3(O)[C@@H](C=C(CO)C[C@]4(O)C(=O)C(C)=C[C@@H]34)[C@@H]1C2(C)C`, the 50% effective concentration (EC50) in series [1] is 0.94 nM.

As to `CCCCC/C=C\C/C=C\CCCCCCCC(=O)O[C@@]12[C@H](OC(=O)c3ccccc3)[C@@H](C)[C@@]3(O)[C@@H](C=C(CO)C[C@]4(O)C(=O)C(C)=C[C@@H]34)[C@@H]1C2(C)C`, the Activity result in the series with TZM is given as “Non-Toxic”. In addition, in series [1], the EC50 was 13 nM.

In the case of `CCCCCCCC(=O)O[C@@]12[C@H](OC(=O)c3ccccc3)[C@@H](C)[C@@]3(O)[C@@H](C=C(CO)C[C@]4(O)C(=O)C(C)=C[C@@H]34)[C@@H]1C2(C)C`, the EC50 in series [1] turned out to be 1.5 nM.

Regarding `C=C(C)[C@]12C[C@@H](COC(C)=O)[C@@]34OC5(O[C@@H]1[C@@H]3[C@@H]1O[C@]1(CO)[C@@H](O)[C@@]1(O)[C@H]4[C@H]([C@H](C)[C@@H]1OCc1ccccc1)[C@H](C)CCCCCC[C@H]5O)O2`, the EC50 in series [1] stood at 0.33 nM.

In the case of `CCCCCCCCCCCCCCCCCC(=O)O[C@@]12[C@H](OC(=O)c3ccccc3)[C@@H](C)[C@@]3(O)[C@@H](C=C(CO)C[C@]4(O)C(=O)C(C)=C[C@@H]34)[C@@H]1C2(C)C`, in the series with TZM, the Activity entry was “Non-Toxic”.

As to `C=C(C)[C@]12C[C@@H](COC(C)=O)[C@@]34OC5(O[C@@H]1[C@@H]3[C@@H]1O[C@]1(CO)[C@@H](O)[C@@]1(O)[C@H]4[C@H]([C@H](C)[C@@H]1OCc1ccccc1)[C@H](C)C[C@H](OCc1ccccc1)CCCC[C@H]5O)O2`, in series [1], the EC50 worked out at 12 nM.

Take `CCCCC/C=C/C/C=C\C/C=C\CCCCC(=O)O[C@@]12[C@H](OC(=O)c3ccccc3)[C@@H](C)[C@@]3(O)[C@@H](C=C(CO)C[C@]4(O)C(=O)C(C)=C[C@@H]34)[C@@H]1C2(C)C`: the Activity entry in the series on TZM is reported as “Non-Toxic”. Further, in series [1], the EC50 was 10 nM.

Turning to `CCCCCCCC/C=C\CCCCCCCC(=O)O[C@@]12[C@H](OC(=O)c3ccccc3)[C@@H](C)[C@@]3(O)[C@@H](C=C(CO)C[C@]4(O)C(=O)C(C)=C[C@@H]34)[C@@H]1C2(C)C`, in the series on TZM, the Activity entry is recorded as “Non-Toxic”. In addition, in series [1], the EC50 turned out to be 16 nM.

As for `C=C(C)[C@]12C[C@@H](COCc3ccccc3)[C@@]34OC5(CCCCC[C@@H](OCc6ccccc6)C[C@@H](C)[C@H]6[C@H](C)[C@H](OCc7ccccc7)[C@@](O)([C@H](O)[C@@]7(CO)O[C@H]7[C@H]3[C@H]1O5)[C@@H]64)O2`, in series [1], the EC50 was 3.9 nM.

Take `C=C(C)[C@]12C[C@@H](COCc3ccccc3)[C@@]34OC5(CCCCCCC[C@@H](C)[C@H]6[C@H](C)C(=O)[C@@](O)([C@H](O)[C@@]7(CO)O[C@H]7[C@H]3[C@H]1O5)[C@@H]64)O2`: the EC50 in series [1] worked out at 3.7 nM.

With `C=C(C)[C@]12C[C@@H](C)[C@@]34OC5(CCCCCCC[C@@H](C)[C@H]6[C@H](C)[C@H](OCc7ccccc7)[C@@](O)([C@H](O)[C@@]7(CO)O[C@H]7[C@H]3[C@H]1O5)[C@@H]64)O2`, the EC50 in series [1] amounted to 2.7 nM.

Consider `C=C(C)[C@]12CC[C@@]34OC(C)(O[C@@H]1[C@@H]3[C@@H]1O[C@]1(CO)[C@@H](O)[C@]1(O)[C@@H](OCc3ccccc3)[C@@H](C)C[C@@H]41)O2`, for which the EC50 in series [1] came to 0.14 nM.

As for `CC/C=C\C/C=C\C/C=C\CCCCCCCC(=O)O[C@@]12[C@H](OC(=O)c3ccccc3)[C@@H](C)[C@@]3(O)[C@@H](C=C(CO)C[C@]4(O)C(=O)C(C)=C[C@@H]34)[C@@H]1C2(C)C`, in the series on TZM, the Activity result is recorded as “Non-Toxic”. For the same compound, in series [1], the half-maximal effective concentration (EC50) was determined as 7.6 nM.

As for `C=C(C)[C@]12CC[C@@]34OC(C)(O[C@@H]1[C@@H]3[C@@H]1O[C@]1(CO)[C@@H](O)[C@]1(O)C(=O)[C@@H](C)C[C@@H]41)O2`, the EC50 in series [1] came out at 3.7 nM.

Take `C=C(C)[C@]12C[C@@H](C)[C@@]34O[C@]5(CCCCCCC[C@H](C)[C@H]6[C@H](C)C(=O)[C@@](O)([C@H](O)[C@@]7(CO)O[C@H]7[C@H]3[C@H]1O5)[C@@H]64)O2`: the EC50 in series [1] worked out at 6.9 nM.

On to `C=C(C)[C@]12C[C@@H](C)[C@@]34O[C@@](CCCCCCCCC)(O[C@@H]1[C@@H]3[C@@H]1O[C@]1(CO)[C@@H](O)[C@]1(O)C(=O)C(C)=C[C@H]14)O2`, for which the EC50 in series [1] amounted to 9 nM.

As for `C=C(C)[C@@]12O[C@]3(/C=C/C=C/CCCCCCCCC)O[C@@H]1[C@@H]1[C@@H]4O[C@]4(CO)[C@@H](O)[C@]4(O)C(=O)C(C)=C[C@H]4[C@@]1(O3)[C@H](C)[C@H]2OC(C)=O`, the concentration for a half-maximal effect (EC50) in series [1] came out at 0.39 nM.

For the compound `CCCCCCCCCC(=O)O[C@@]12[C@H](OC(=O)c3ccccc3)[C@@H](C)[C@@]3(O)[C@@H](C=C(CO)C[C@]4(O)C(=O)C(C)=C[C@@H]34)[C@@H]1C2(C)C` [STELLERARIN], in series [1], the EC50 amounted to 0.74 nM.
